Source: patent US10004732B2 (Novartis AG, priority 2014, dated 2018)
Where a name gives a salt, the structure may show the parent alone.

Columns and labels:
Vps34 = Vps34 (Homo sapiens, UniProt Q8NEB9); test: Kinase Glo Luminescent Kinase Assay (Kglo), assay C; type: biochemical; settings: read-out: Assay C VPS34 IC50
PI 3-kinase gamma [1] = target: T1, PI 3-kinase gamma (Homo sapiens, UniProt P48736); test: TR-FRET Adapta assay, assay E; type: biochemical; settings: read-out: Assay E PI3Kγ IC50
PI 3-kinase alpha [2] = target: T2, PI 3-kinase alpha (Homo sapiens, UniProt P42336); test: Kinase Glo Luminescent Kinase Assay (Kglo), assay A; type: biochemical; settings: read-out: Assay A PI3Kα IC50
Target sequence in this assay (P42336 whole entry): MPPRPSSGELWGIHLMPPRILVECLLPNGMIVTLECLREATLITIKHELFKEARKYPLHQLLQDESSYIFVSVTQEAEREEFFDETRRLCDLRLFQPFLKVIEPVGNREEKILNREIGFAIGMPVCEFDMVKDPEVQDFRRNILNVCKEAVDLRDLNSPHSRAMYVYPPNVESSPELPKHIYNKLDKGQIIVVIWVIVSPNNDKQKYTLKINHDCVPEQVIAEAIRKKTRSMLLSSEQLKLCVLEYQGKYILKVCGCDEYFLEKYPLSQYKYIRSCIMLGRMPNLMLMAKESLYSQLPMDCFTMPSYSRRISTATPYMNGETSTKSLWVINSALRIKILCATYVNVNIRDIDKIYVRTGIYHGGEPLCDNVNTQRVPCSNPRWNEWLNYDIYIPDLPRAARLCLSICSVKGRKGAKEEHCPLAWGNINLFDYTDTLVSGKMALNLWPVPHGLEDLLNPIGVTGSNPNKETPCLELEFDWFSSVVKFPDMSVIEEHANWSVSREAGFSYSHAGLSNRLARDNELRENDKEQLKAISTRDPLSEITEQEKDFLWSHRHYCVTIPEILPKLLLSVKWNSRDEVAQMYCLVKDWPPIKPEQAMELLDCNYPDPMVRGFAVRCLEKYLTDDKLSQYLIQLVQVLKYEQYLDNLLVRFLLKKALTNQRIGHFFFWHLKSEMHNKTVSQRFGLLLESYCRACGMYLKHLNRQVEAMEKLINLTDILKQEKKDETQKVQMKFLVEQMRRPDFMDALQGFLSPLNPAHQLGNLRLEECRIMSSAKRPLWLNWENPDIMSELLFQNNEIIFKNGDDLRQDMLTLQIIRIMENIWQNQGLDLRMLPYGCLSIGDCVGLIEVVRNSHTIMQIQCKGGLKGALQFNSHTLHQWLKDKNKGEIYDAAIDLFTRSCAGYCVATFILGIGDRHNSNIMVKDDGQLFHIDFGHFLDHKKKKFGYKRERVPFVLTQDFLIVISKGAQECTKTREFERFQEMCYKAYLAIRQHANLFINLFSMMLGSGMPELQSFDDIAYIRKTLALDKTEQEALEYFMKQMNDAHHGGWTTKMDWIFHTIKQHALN
Description: Kinase Glo Luminescent Kinase Assay (Kglo) for Pb 3-Kinase Alpha (A), Pb 3-Kinase Beta (B), Vps34 (C), Pb 4-Kinase Beta (D)
The Kinase Glo Luminescent Kinase Assay (Promega, Madison/Wis., USA) is a homogeneous HTS method of measuring kinase activity by quantifying the amount of ATP remaining in solution following a kinase reaction.
L-α-phosphatidylinositol (PI), provided as 10 mg/ml solution in methanol, was transferred into a glass tube and dried under a nitrogen beam. It was then resuspended in 3% OctylGlucoside (1-0-n-octyl-beta-D-glucopyranoside) by vortexing and stored at 4° C. 5 μL of a mix of PI/OctylGlucoside with the PI 3-kinase alpha and PI 3-kinase beta subtypes, or Vps34 or PI 4-kinase beta were added. Kinase reactions were started by the addition of 5 μl of an ATP-mix containing in a final volume 10 μL 10 mM TRIS-HCl pH 7.5, 3 mM MgCl2, 50 mM NaCl, 0.05% CHAPS, 1 mM DTT and 1 μM ATP at room temperature.
All fits were performed with the program XLfit4 (ID Business Solutions, Guildford, UK).

PI 3-kinase gamma [3] = target: T1, PI 3-kinase gamma; test: Cellular U937 AKT assay K1 (MSD); type: cell-based; settings: U937 cells, K1 format; read-out: Assay K1 PI3Kγ IC50
mTOR = mTOR (Homo sapiens, UniProt P42345); test: Lanthascreen kinase binding assay, assay G; settings: read-out: Assay G mTOR IC50
Description: Lanthascreen™ Kinase Binding Assay for mTOR (G)
Binding of an inhibitor to the kinase competes for binding with the tracer, resulting in a loss of FRET.
50 nL of compound dilutions were dispensed onto white 384-well small volume polystyrene plate.

PI 4-kinase beta = PI 4-kinase beta (Homo sapiens, UniProt Q9UBF8); test: Kinase Glo Luminescent Kinase Assay (Kglo), assay D; type: biochemical; settings: read-out: Assay D PI4Kβ IC50
PI 3-kinase beta [4] = target: T3, PI 3-kinase beta (Homo sapiens, UniProt P42338); test: Cellular assay I1, p-Akt (S473) in Rat-1 cells, Surefire format; type: cell-based; settings: non-asterisked data: version I1 (Surefire format), Rat-1 cells; read-out: Assay I PI3Kβ IC50
Target sequence in this assay (P42338 whole entry): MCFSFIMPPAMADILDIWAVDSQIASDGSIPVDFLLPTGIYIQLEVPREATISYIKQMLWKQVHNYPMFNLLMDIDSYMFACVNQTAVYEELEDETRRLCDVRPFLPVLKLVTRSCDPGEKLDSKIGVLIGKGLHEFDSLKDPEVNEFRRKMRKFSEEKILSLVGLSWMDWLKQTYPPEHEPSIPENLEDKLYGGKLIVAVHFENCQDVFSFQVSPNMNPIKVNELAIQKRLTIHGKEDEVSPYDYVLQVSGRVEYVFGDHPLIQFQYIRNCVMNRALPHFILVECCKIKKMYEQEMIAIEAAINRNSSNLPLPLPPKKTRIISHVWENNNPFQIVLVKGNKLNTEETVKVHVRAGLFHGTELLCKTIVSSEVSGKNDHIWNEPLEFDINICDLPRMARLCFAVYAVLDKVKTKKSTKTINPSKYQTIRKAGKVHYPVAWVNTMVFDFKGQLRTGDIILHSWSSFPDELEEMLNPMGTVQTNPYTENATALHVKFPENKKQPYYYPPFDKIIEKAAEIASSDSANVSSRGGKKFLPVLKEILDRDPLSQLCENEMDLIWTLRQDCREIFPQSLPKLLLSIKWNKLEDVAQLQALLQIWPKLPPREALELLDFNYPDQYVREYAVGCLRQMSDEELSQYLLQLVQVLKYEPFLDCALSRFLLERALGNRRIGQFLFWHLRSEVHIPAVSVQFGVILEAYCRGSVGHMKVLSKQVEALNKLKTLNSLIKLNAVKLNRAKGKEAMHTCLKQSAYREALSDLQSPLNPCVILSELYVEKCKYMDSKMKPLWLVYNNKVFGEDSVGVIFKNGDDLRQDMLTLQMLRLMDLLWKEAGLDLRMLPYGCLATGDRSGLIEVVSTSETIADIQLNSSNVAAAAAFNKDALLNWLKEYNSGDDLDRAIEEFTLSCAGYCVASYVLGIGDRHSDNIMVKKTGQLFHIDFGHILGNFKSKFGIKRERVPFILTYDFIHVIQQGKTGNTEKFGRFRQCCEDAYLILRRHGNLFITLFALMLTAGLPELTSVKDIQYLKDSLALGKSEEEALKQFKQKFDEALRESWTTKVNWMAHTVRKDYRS
Target sequence in this assay (Q63787 whole entry partner): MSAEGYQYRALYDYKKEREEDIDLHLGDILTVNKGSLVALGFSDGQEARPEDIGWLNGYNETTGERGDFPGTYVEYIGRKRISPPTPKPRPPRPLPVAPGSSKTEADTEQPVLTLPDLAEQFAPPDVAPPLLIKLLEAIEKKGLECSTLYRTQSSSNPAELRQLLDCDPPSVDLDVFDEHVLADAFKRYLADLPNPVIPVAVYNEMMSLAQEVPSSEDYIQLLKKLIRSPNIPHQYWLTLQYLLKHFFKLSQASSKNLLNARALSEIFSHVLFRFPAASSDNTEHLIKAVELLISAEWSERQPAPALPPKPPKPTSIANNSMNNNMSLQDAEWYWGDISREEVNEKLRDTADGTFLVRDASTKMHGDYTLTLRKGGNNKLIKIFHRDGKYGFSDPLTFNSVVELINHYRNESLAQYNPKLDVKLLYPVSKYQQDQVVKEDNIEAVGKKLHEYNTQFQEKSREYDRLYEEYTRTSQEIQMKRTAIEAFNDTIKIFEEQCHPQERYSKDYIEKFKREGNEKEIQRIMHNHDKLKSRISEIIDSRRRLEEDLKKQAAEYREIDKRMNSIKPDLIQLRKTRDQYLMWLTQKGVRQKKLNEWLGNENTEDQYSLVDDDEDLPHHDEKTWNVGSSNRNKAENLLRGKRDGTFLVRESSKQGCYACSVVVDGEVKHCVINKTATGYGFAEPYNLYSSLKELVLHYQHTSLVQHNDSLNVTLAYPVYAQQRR

PI 3-kinase alpha [5] = target: T2, PI 3-kinase alpha; test: Cellular assay H1, p-Akt (S473) in Rat-1 cells, Surefire format; type: cell-based; settings: non-asterisked data: version H1 (Surefire format), Rat-1 cells; read-out: Assay H PI3Kα IC50
Target sequence in this assay (P42336 whole entry): as the sequence (P42336 whole entry) above
Target sequence in this assay (Q63787 whole entry partner): as the sequence (Q63787 whole entry partner) above

PI 3-kinase beta [6] = target: T3, PI 3-kinase beta; test: Kinase Glo Luminescent Kinase Assay (Kglo), assay B; type: biochemical; settings: read-out: Assay B PI3Kβ IC50
[7] = Microsomal clearance assay (M); settings: intrinsic clearance in rat liver microsomes
Description: The experiments were performed in 96-well glass plates at 37° C. on an automated Tecan EVO platform. Test compounds at a concentration of 10 mM in pure DMSO were diluted 1:1000 in water to 10 μM. […] Reactions were initiated by the addition of 150 μL of a cofactor solution containing 2 mM NADPH.

PI 3-kinase delta [8] = target: T4, PI 3-kinase delta (Homo sapiens, UniProt O00329); test: TR-FRET Adapta assay, assay F; settings: read-out: Assay F PI3Kδ IC50
Target sequence in this assay (O00329 whole entry): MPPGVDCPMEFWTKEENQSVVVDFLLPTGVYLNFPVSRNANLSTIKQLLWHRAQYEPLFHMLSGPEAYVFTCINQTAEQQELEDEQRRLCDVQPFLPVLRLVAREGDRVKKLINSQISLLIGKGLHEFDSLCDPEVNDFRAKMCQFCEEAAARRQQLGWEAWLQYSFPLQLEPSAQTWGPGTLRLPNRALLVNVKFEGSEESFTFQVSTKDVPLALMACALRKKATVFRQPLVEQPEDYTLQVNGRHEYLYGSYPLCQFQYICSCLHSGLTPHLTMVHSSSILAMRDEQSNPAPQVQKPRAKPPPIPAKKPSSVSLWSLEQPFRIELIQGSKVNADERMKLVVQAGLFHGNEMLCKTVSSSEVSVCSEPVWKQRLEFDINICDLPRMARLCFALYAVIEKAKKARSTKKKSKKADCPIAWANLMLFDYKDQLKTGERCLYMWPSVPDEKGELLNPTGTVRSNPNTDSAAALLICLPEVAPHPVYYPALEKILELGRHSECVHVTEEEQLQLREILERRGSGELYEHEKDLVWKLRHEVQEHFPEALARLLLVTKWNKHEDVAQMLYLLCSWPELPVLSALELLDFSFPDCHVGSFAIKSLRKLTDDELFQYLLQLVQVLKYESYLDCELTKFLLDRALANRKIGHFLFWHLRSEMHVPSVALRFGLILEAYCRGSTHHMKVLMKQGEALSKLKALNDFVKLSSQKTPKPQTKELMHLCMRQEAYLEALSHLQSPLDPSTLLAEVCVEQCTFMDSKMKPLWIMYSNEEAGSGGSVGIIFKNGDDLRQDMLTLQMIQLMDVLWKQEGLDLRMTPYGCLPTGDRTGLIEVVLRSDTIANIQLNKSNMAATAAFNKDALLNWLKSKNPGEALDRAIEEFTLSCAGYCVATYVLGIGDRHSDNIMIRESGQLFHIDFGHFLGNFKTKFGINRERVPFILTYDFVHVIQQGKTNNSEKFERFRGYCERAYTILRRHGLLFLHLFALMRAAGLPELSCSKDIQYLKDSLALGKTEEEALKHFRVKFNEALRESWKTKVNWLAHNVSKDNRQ
Target sequence in this assay (P27986 461-568 partner): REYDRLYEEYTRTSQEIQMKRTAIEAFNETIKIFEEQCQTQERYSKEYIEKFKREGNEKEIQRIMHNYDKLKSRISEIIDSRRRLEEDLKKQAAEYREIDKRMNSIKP

PI 3-kinase delta [9] = target: T4, PI 3-kinase delta; test: Cellular assay J1, p-Akt (S473) in Rat-1 cells, Surefire format; type: cell-based; settings: non-asterisked data: version J1 (Surefire format), Rat-1 cells; read-out: Assay J PI3Kδ IC50
Target sequence in this assay (O00329 whole entry): as the sequence (O00329 whole entry) above
Target sequence in this assay (Q63787 whole entry partner): as the sequence (Q63787 whole entry partner) above

Chain of Vps34 (Q8NEB9 whole entry, species assumed): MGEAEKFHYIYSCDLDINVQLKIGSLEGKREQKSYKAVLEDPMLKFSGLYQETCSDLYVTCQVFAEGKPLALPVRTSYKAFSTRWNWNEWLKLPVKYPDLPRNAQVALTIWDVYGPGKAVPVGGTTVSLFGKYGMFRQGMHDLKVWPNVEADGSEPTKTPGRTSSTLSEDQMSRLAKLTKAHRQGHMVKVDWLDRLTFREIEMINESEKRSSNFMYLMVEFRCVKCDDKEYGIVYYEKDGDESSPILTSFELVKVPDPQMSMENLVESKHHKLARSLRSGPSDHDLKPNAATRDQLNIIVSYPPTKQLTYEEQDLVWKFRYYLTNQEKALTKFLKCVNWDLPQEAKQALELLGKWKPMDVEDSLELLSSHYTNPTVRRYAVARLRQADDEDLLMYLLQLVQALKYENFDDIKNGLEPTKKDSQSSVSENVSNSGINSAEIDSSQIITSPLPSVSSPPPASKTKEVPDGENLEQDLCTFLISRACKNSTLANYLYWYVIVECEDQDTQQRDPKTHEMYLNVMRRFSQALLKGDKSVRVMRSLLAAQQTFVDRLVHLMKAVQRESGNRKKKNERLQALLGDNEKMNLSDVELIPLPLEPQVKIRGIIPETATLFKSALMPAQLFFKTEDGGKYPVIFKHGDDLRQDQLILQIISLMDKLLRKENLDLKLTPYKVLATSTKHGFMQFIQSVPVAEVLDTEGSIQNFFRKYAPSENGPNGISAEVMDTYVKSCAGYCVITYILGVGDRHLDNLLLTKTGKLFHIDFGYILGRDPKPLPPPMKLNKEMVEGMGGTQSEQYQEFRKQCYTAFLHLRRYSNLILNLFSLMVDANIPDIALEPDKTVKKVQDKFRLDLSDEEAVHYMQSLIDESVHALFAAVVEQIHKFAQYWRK

Row | SMILES | IC50 (Vps34) [µM] | IC50 (PI 3-kinase gamma [1]) [µM] | IC50 (PI 3-kinase alpha [2]) [µM] | IC50 (PI 3-kinase gamma [3]) [µM] | IC50 (mTOR) [µM] | IC50 (PI 4-kinase beta) [µM] | IC50 (PI 3-kinase beta [4]) [µM] | IC50 (PI 3-kinase alpha [5]) [µM] | IC50 (PI 3-kinase beta [6]) [µM] | Assay M RLM CI(int) [7] [µL/min/mg] | IC50 (PI 3-kinase delta [8]) [µM] | IC50 (PI 3-kinase delta [9]) [µM]
1 | Cc1ccc(S(=O)(=O)NC[C@H]2CCCN2)cc1-c1cnc(N)c(-c2cn(C)nc2C)n1 [Example 106, (R)-3-(5-Amino-6-(1,3-dimethyl-1H-pyrazol-4-yl)pyrazin-2-yl)-4-methyl-N-(pyrrolidin-2-ylmethyl)benzenesulfonamide hydrochloride] | > 10 | 0.025 | 0.1 | 2.28 | – | 5.6 | > 10 | > 10 | 0.75 | 29 | 0.14 | > 10
2 | Cc1cc(Cl)c(S(=O)(=O)NCC(C)(C)O)cc1-c1cnc(N)c(-n2cncn2)n1 [Example 124, 5-(5-Amino-6-(1H-1,2,4-triazol-1-yl)pyrazin-2-yl)-2-chloro-N-(2-hydroxy-2-methylpropyl)-4-methylbenzenesulfonamide] | > 10 | 0.022 | 0.04 | 0.038 | 0.71 | 0.42 | 0.81 | 0.25 | 0.1 | 79 | 0.16 | 0.29
3 | Cc1ccc(S(=O)(=O)NCCC(C)(C)O)cc1-c1cnc(N)c(-c2cnn(CCN3CCOCC3)c2)n1 [Example 119.41] | > 10 | 0.025 | 0.42 | 0.091 | > 10 | 6 | 3.2 | > 10 | 3.25 | 73 | 0.03 | 6.49
4 | Cc1cc(-c2nc(-c3cc(S(=O)(=O)NCC4CCOC4)ccc3C)cnc2N)ccn1 (centres unmarked) [Example 129.18, 3-(5-amino-6-(2-methylpyridin-4-yl)pyrazin-2-yl)-4-methyl-N-((tetrahydrofuran-3-yl)methyl)benzenesulfonamide] | > 9.1 | 0.064 | 0.69 | 0.528 | > 9.1 | > 9.1 | > 10 | 4.92 | 8.11 | 97 | 0.4 | 5.63
5 | Cc1ccc(S(=O)(=O)NCCC(C)(C)O)cc1-c1cnc(N)c(-c2cnn(Cc3cccnc3)c2)n1 [Example 119.38] | > 9.1 | 0.012 | 0.09 | 0.034 | 4.6 | 6.3 | 2.21 | 6.57 | 3.5 | 167 | 0.03 | 1.03
6 | Cc1cc(-c2nc(-c3cc(S(=O)(=O)N[C@H]4CC[C@@H](O)CC4)ccc3C)cnc2N)ccn1 [Example 76, 3-(5-Amino-6-(2-methylpyridin-4-yl)pyrazin-2-yl)-N-((1s,4s)-4-hydroxycyclohexyl)-4-methylbenzenesulfonamide] | > 9.1 | 0.064 | 0.18 | 0.203 | 4.19 | 4.47 | > 10 | 3.37 | 3.71 | 48 | 0.48 | 3.52
7 | Cc1ccc(S(=O)(=O)NCC2COCCN2C)cc1-c1cnc(N)c(-c2cn(C)nc2C)n1 (centres unmarked) [Example 128.2, 3-(5-Amino-6-(1,3-dimethyl-1H-pyrazol-4-yl)pyrazin-2-yl)-4-methyl-N-((4-methylmorpholin-3-yl)methyl)benzenesulfonamide] | > 10 | 0.049 | 0.27 | 0.09 | – | > 10 | – | 1.91 | – | 27 | 0.45 | 1.57

The next lines start with the values.

Row | IC50 (Vps34) [µM] | IC50 (PI 3-kinase gamma [1]) [µM] | IC50 (PI 3-kinase alpha [2]) [µM] | IC50 (PI 3-kinase gamma [3]) [µM] | IC50 (mTOR) [µM] | IC50 (PI 4-kinase beta) [µM] | IC50 (PI 3-kinase beta [4]) [µM] | IC50 (PI 3-kinase alpha [5]) [µM] | IC50 (PI 3-kinase beta [6]) [µM] | Assay M RLM CI(int) [7] [µL/min/mg] | IC50 (PI 3-kinase delta [8]) [µM] | IC50 (PI 3-kinase delta [9]) [µM] | SMILES
8 | > 9.1 | 0.04 | 0.11 | 0.093 | 8.35 | 3.63 | 3.08 | 1.54 | 4.57 | 24 | 0.22 | 1.3 | Cc1ccc(S(=O)(=O)N[C@H]2CC[C@H](O)CC2)cc1-c1cnc(N)c(-c2ccnc(F)c2)n1 [Example 60, Trans-3-(5-Amino-6-(2-fluoropyridin-4-yl)pyrazin-2-yl)-N-(-4-hydroxycyclohexyl)-4-methylbenzenesulfonamide]
9 | > 9.1 | 0.006 | 0.1 | 0.034 | 6.9 | 6.5 | 2.15 | 5.04 | 2.8 | 203 | 0.04 | 1.61 | Cc1ccc(S(=O)(=O)NCCC(C)(C)O)cc1-c1cnc(N)c(-c2cnn(Cc3ccncc3)c2)n1 [Example 119.39]
10 | > 9.1 | 0.082 | 0.75 | 0.575 | > 9.1 | 8 | 1.66 | 4.9 | > 9.1 | 118 | 0.55 | 4.85 | Cc1ccc(S(=O)(=O)NCCC(C)(C)O)cc1-c1cnc(N)c(-c2cccnc2)n1 [Example 119.5]
11 | > 9.1 | 0.054 | 1.77 | 0.947 | > 9.1 | > 9.1 | 8.75 | 4.7 | > 9.1 | – | 0.34 | 5.31 | CCc1noc(-c2nc(-c3cc(S(=O)(=O)N4CCC(CO)CC4)ccc3C)cnc2N)n1 [Example 141, (1-((3-(5-Amino-6-(3-ethyl-1,2,4-oxadiazol-5-yl)pyrazin-2-yl)-4-methylphenyl)sulfonyl)piperidin-4-yl)methanol]
12 | > 9.1 | 0.006 | 0.19 | 0.109 | 5.98 | 7.94 | 5.92 | 0.99 | > 9.1 | 311 | 0.08 | 0.73 | Cc1ccc(S(=O)(=O)NCCC(C)(C)O)cc1-c1cnc(N)c(-n2cnc(C(C)C)n2)n1 [Example 66, 3-(5-Amino-6-(3-isopropyl-1H-1,2,4-triazol-1-yl)pyrazin-2-yl)-N-(3-hydroxy-3-methylbutyl)-4-methylbenzenesulfonamide]
13 | > 9.1 | 0.098 | 0.58 | > 10 | > 9.1 | 4.14 | 6.75 | 2.45 | > 9.1 | 98 | 0.45 | 3.26 | CCOc1ccc(-c2nc(-c3cc(S(=O)(=O)NCCC(C)(C)O)ccc3C)cnc2N)cn1 [Example 119.13]
14 | > 9.1 | 1.82 | 5.47 | 0.479 | > 9.1 | > 9.1 | > 10 | 8.97 | > 9.1 | 56 | 5.81 | 8.18 | Cc1ccc(S(=O)(=O)NCCC(C)(C)O)cc1-c1cnc(N)c(-n2ccnc2)n1 [Example 61, 3-(5-Amino-6-(1H-imidazol-1-yl)pyrazin-2-yl)-N-(3-hydroxy-3-methylbutyl)-4-methylbenzenesulfonamide]
15 | 7.99 | 0.161 | 0.82 | 0.86 | 5.61 | 7.7 | 1.72 | 4.07 | > 9.1 | – | 0.38 | 2.88 | Cc1ccc(S(=O)(=O)NCCC(C)(C)O)cc1-c1cnc(N)c(-c2cccnc2Cl)n1 [Example 119.6]
16 | 0.9 | 0.006 | 0.05 | 0.015 | – | 1.4 | > 10 | 1.39 | 0.2 | 55 | 0.22 | 1.19 | Cc1ncc(-c2nc(-c3cc(S(=O)(=O)NC4CC(O)C4)ccc3C)cnc2N)s1 (mixture of isomers) [Example 43, 3-(5-Amino-6-(2-methylthiazol-5-yl)pyrazin-2-yl)-N-(3-hydroxycyclobutyl)-4-methylbenzenesulfonamide]
